Biological target: T1, human NPC1L1 (Homo sapiens, UniProt Q9UHC9)
T1 sequence (Q9UHC9 22-1359): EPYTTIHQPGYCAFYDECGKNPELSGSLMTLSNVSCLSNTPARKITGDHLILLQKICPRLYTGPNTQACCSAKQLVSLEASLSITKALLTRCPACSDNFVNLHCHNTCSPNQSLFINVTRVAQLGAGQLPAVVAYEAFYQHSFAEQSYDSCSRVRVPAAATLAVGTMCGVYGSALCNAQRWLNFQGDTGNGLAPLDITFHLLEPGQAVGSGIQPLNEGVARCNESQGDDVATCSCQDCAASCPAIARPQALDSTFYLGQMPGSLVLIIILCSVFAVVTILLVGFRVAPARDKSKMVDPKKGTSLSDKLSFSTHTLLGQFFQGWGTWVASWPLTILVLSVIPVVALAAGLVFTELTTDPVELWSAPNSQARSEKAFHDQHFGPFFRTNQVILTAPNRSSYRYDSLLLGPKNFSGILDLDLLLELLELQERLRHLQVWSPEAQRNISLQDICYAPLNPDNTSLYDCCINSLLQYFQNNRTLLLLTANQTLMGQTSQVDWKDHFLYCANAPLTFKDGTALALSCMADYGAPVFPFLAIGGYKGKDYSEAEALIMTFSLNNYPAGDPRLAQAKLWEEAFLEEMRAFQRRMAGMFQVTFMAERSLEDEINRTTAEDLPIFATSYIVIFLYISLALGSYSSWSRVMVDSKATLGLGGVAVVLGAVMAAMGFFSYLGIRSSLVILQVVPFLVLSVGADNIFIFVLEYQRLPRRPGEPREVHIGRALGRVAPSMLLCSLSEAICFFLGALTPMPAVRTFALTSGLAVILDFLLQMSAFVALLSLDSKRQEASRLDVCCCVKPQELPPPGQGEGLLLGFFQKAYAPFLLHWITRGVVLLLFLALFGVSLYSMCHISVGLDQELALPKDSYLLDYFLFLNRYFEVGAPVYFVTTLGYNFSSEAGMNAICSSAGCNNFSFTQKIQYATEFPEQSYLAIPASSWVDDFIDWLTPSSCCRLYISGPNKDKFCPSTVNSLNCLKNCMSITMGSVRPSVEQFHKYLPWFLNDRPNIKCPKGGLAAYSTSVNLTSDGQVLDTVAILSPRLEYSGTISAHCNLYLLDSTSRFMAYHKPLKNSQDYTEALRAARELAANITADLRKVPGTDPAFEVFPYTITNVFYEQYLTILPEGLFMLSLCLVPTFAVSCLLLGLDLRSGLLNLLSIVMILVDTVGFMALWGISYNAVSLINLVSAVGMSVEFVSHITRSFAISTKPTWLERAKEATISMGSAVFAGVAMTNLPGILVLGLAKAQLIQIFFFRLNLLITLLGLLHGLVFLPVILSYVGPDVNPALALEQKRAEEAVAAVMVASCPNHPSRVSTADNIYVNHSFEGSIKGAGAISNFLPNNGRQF
Assay: 3H-cholesterol uptake inhibition in hNPC1L1/MDCKII cells
Format: cell-based

| IC50 [µM] | Compound |
| --- | --- |
| 0.682 | O=C(O)[C@H]1O[C@@H](Oc2ccc([C@@H]3[C@@H](CC[C@H](O)c4ccc(F)cc4)C(=O)N3c3ccc(F)cc3)cc2)[C@H](O)[C@@H](O)[C@@H]1O [Eze-Glu, ezetimibe-glucuronide] |
| 3.86 | O=C1[C@H](CC[C@H](O)c2ccc(F)cc2)[C@@H](c2ccc(O)cc2)N1c1ccc(F)cc1 [Eze, ezetimibe] |
